{"source": "patent US20130053392A1", "about": "“CARBONIC ANHYDRASE INHIBITORS” (priority 2010, published 2013)", "key": {"[1]": {"conditions": "prior art compound (Winum et al); cited from earlier work"}, "MDA-231 GFP cells": {"test_system": "MDA-231 GFP cells", "assay": "Cell migration (scratch wound) assay, MDA-231", "assay_type": "cell-based", "conditions": "33 μM preliminary screen, 24 h, MDA231, FIG. 7/8", "description": "A cell migration assay was performed as follows. A coverslip was placed in a 3 cm dish and 0.5×10^6 cells (in 10% FCS-RPMI) was seeded, per 3 cm dish. The cells were left to grow for 24 hours so as to obtain a confluent layer of cells on the coverslip and a scratch was made with a pipette tip (p200) and loosely attached cells were washed off. The medium was replaced with a low serum (0.2% serum) medium to reduce the level of proliferation.\nCells were fixed in buffered formalin and scratches were imaged with ImageJ and the extent of wound closure was calculated.\nA series of 11 compounds were assayed in scratch wound assays to evaluate the effect of CA-IX inhibition on cellular migration in air and hypoxia. […] Cells were then cultured in air or hypoxia and migration analysed 24 h later relative to vehicle treated controls."}, "[2]": {"test_system": "HT29 colon carcinoma cells", "assay": "Mouse xenograft model, HT29 colon carcinoma", "assay_type": "in vivo, mice"}, "MDA231-EGFP cells": {"test_system": "MDA231-EGFP cells", "assay": "Orthotopic MDA231-EGFP mammary fat pad tumour and lung clonogen (metastasis) model", "assay_type": "in vivo, mice", "conditions": "10 mg/kg, 5 days on, 2 days off", "description": "16 mice were implanted with 0.1 ml of a 5×10^7/ml suspension of MDA231-EGFP cells into the mammary fat pad of anaesthetized mice. The cells were prepared in a 1:1 mix of Matrigel: serum-free RMPI.\nMouse condition was monitored daily and tumour volumes recorded at least 3× per week.\nOnce tumours reached approximately 100 mm^3, they were randomised in to the following treatment groups:\nGroup 1: 8 mice implanted with MDA231-EGFP cells received vehicle administered in a “5 days on, 2 days” off schedule (ie Mon-Fri dosing each week).\nGroup 2: 8 mice implanted with MDA231-EGFP cells received CA-IX inhibitor S4 administered at 10 mg/kg dose in a “5 days on, 2 days” off schedule (ie Mon-Fri dosing each week).\nTreatment was continued until primary tumours reached a designated endpoint volume of approx 1000 mm^3.\nMouse health and condition was monitored throughout and weights recorded up to 3 times per week.\nBefore sacrifice Pimonidazole at 0.2 ml of 10 mg/ml solution i/p (2 h before) and 0.1 ml of a 6 mg/ml Hoechst solution (iv) (1 minute before) were administered. Tumour and lungs were rapidly removed for processing.\nClonogens were assessed in lungs using a clonogenic assay. About a quarter of the total lung tissue was taken and weighed. […] Clones were then stained with bromophenol blue and counted, calculating the number per mg of tissue following correction for the dilution."}, "FaDU head and neck cells": {"test_system": "FaDU head and neck cells", "assay": "FaDU spheroid clonogenicity assay with doxorubicin or radiation", "assay_type": "cell-based", "conditions": "listed as S4", "description": "These studies were undertaken using tumour cells grown into 3-D spheroid cultures that have a natural oxygen gradient. Spheroids of FaDU head and neck cells were generated and treated for 24 h with S4 or vehicle alone; doxorubicin alone or in combination with S4; and S4 or vehicle plus 10 Gy radiotherapy given at the end of the 24 h exposure. Spheroids were treated with trypsin to generate single cell suspensions and plated at various dilutions. Clonogenecity was then recorded per spheroid.\nSpheroids were generated by the “liquid overlay technique”. […] The coating prevents the cells from forming monolayers and gives rise of spheroid growth.\nThe spheroids were grown in a CO2-incubator for 5-7 days. Thereafter, the spheroids were collected and grown in a spinner flask for an additional 5-7 days until they reached a diameter of ˜500-750 μm (10%-0.1% O2 gradient in spheroid).\nSpheroids were pooled for the following treatments: • 1. Vehicle for 24 hours • 2. […] Doxorubicin (10 μM) for 24 h • 4. Vehicle for 24 hours followed by 10 Gy radiotherapy • 5.\nDirectly thereafter, spheroids were digested to single cells using trypsin/EDTA and the cells seeded at a range of concentration in culture plates (clonogenicity assay).\nAfter about a week the cells were stained with methylene blue and the number of colonies counted."}, "[3]": {"test_system": "EV/2 CA IX expressing cells (HT-29)", "assay": "Clonogenic survival after irradiation, EV/2 cells", "assay_type": "cell-based, human", "conditions": "S4 33 μM 23 h", "description": "(§1) Cells were incubated with S4 1 h after the start of the anoxic/normoxic exposure, during 23 h. […] After incubation, cells were irradiated on ice (MCN 225 industrial X-ray tube (Philips, Eindhoven, NL) at 225 kV and 10 mA under the respective oxygen concentrations using different doses (Normoxia: 0, 2, 4, 6, and 8 Gy; Anoxia: 0, 4, 8, 12 and 16 Gy). After irradiation, cells were washed, trypsinized and plated for the clonogenic survival assay and incubated under standard culture conditions until colonies were formed (14 days). Colonies were fixed and stained with 4% methylene blue in 70% ethanol. Plating efficiency was determined by counting colonies consisting of >50 cells and correcting for the number of cells seeded."}, "[4]": {"test_system": "94/1 CA IX knock down cells (HT-29)", "assay": "Clonogenic survival after irradiation, 94/1 cells", "assay_type": "cell-based, human", "description": "as §1"}, "[5]": {"assay": "Proliferation/viability assays", "assay_type": "cell-based", "conditions": "33 μM", "description": "CA IX inhibition, either using a genetic approach (knock down) or pharmacological (S4) results in a sensitization to irradiation. Genetically or pharmacologically, this sensitization occurs to a similar extent. Pharmacological testing was performed at 33 μM, a concentration selected based on no-toxicity under normoxic conditions based on proliferation/viability assays."}, "hCA IX": {"molecular_target": "T1, hCA IX (Homo sapiens, UniProt Q16790)", "T1 construct": "made in house", "assay": "CA-catalysed CO2 hydration stopped-flow inhibition assay, hCA IX", "assay_type": "biochemical", "conditions": "Table 3, stopped flow assay", "description": "Typically, CA inhibition is measured by assaying for CA-catalysed CO2 hydration activity using an appropriate indicator dye. […] Stopped flow spectrophotometry may used to measure the rate of hydration activity.\nThe uncatalyzed rates were determined in the same manner and subtracted from the total observed rates. Stock solutions of inhibitor (0.1 mM) were prepared in distilled-deionized water and dilutions up to 0.01 nM were done thereafter with distilled-deionized water Inhibitor and enzyme solutions were preincubated together for 15 min at room temperature in order to allow for the formation of the E-I complex. The inhibition constants were obtained by non-linear least-squares methods using PRISM 3, as reported earlier,^1,2,3 and represent the mean from at least three different determinations. All enzymes were recombinant ones, obtained as reported earlier.^2,3 • 1. Khalifah, R. G. The carbon dioxide hydration activity of carbonic anhydrase. I. Stop-flow kinetic studies on the native human isoenzymes B and C. […] Alterio, V.; Hilvo, M.; Di Fiore, A.; Supuran, C. T.; Pan, P.; Parkkila, S.; Scaloni, A.; Pastorek, J.; Pastorekova, S.; Pedone, C.; Scozzafava, A.; Monti, S. M.; De Simone, G. Crystal structure of the extracellular catalytic domain of the tumor-associated human carbonic anhydrase IX. […] T. Carbonic anhydrase inhibitors: X-ray and molecular modeling study for the interaction of a fluorescent antitumor sulfonamide with isozyme II and IX. J. Am. Chem. Soc. […] J. Am. Chem. Soc."}, "[6]": {"test_system": "EV/2 CA IX expressing cells (HT-29)", "assay": "FC11-489A bis binding, plate reader, EV/2 cells", "assay_type": "cell-based, human", "conditions": "100 μM", "text": "(§2) Plates were placed in a BMG microplate reader FLUOstare Omega using following protocol: Fluorescence intensity—Well scanning using 5×5 scan matrix in a diameter of 10 mm with 10 flashes per scan point, a gain of 1000 and 355 nm-460 nm filter settings."}, "[7]": {"test_system": "94/1 CA IX knock down cells (HT-29)", "assay": "FC11-489A bis binding, plate reader, 94/1 cells", "assay_type": "cell-based, human", "conditions": "100 μM, normoxia, hypoxia, reoxygenation", "text": "as §2"}, "[8]": {"test_system": "EV/2 CA IX expressing cells (HT-29)", "assay": "FC11-489A bis binding, fluorescence staining, EV/2 cells", "assay_type": "cell-based, human", "conditions": "100 μM", "description": "(§3) Cells were mounted onto slides with Fluorescence Mounting Medium (DAKO) and analyzed with a Zeiss Axioskop fluorescence microscope using FIT-C filter settings.\n(§4) Each staining picture was loaded into Image) analysis software (Image J 1.38x NIH USA, http://rsb.info.nih.gov/ij/Java 1.5.0—17), converted to 8-bit images, thresholded to exclude areas without cells and all remaining pixels were analyzed for their intensity.\n(§5) For each oxygen condition, for at least 350 pixels fluorescence intensity was analyzed."}, "[9]": {"test_system": "94/1 CA IX knock down cells (HT-29)", "assay": "FC11-489A bis binding, fluorescence staining, 94/1 cells", "assay_type": "cell-based, human", "conditions": "100 μM, normoxia, hypoxia, reoxygenation, listed as FC11-489A bis", "description": "as §3, §4, §5"}, "[10]": {"test_system": "EV/2 CA IX expressing cells (HT-29)", "assay": "FC11-489A bis binding, flow cytometer, EV/2 cells", "conditions": "100 μM, FACS"}, "[11]": {"test_system": "94/1 CA IX knock down cells (HT-29)", "assay": "FC11-489A bis binding, flow cytometer, 94/1 cells", "conditions": "100 μM, normoxia, hypoxia, reoxygenation, FACS"}}, "note": "“Also recorded” adds a separate entry of the source.", "data": [{"smiles": "NS(=O)(=O)Oc1ccc(Cl)cc1", "note": "[4-chlorophenyl sulphamate]", "values": [{"measurement": "stability in solution", "setting": "[1]", "result": "relatively unstable in solution"}]}, {"smiles": "NS(=O)(=O)Oc1ccc(NC(=O)Nc2ccc(Oc3ccccc3)cc2)cc1", "note": "[Compound 3h, 4-[(4-phenoxyphenyl)ureido]phenyl sulfamate]", "values": [{"measurement": "cellular migration in air and hypoxia relative to vehicle", "setting": "MDA-231 GFP cells", "result": "inhibitory effects against hypoxic cell migration at concentrations that had minimal effects in air"}]}, {"smiles": "NS(=O)(=O)Oc1ccc(NC(=O)Nc2c(F)c(F)c(F)c(F)c2F)cc1", "note": "[Compound 3i, 4-[(pentafluorophenyl)ureido]phenyl sulfamate]", "values": [{"measurement": "cellular migration in air and hypoxia relative to vehicle", "setting": "MDA-231 GFP cells", "result": "inhibitory effects against hypoxic cell migration at concentrations that had minimal effects in air"}]}, {"smiles": "Cc1cc(C)cc(NC(=O)Nc2ccc(OS(N)(=O)=O)cc2)c1", "note": "[Compound 3p, 4-[(3,5-dimethylphenyl)ureido]phenyl sulfamate]", "values": [{"measurement": "volume of the tumour versus control", "setting": "[2]; HT29 xenograft, FIG. 3", "result": "significant reduction in the volume of the tumour"}, {"measurement": "reduction of the tumor growth", "setting": "[2]; highest dosage of CA inhibitor, HT29 xenograft in nude CD1 mice", "result": 30, "unit": "%"}, {"measurement": "number of metastatic MDA-231 clonogens (colonies per gram of lung tissue) versus vehicle", "setting": "MDA231-EGFP cells; FIG. 5", "result": "significantly fewer metastatic clonogens"}, {"measurement": "tumour volume against time versus vehicle", "setting": "MDA231-EGFP cells; orthotopic MDA-231 tumours, FIG. 4", "result": "little or no effect on the growth of the orthotopic MDA-231 tumours"}, {"measurement": "clonogenic survival, combination with radiation", "setting": "FaDU head and neck cells; S4 33 μM 24 h plus 10 Gy radiotherapy", "result": "reduced colongenic survival compared with either agent alone; also recorded: significant reduction in colony formation per spheroid"}, {"measurement": "clonogenic survival, combination with doxorubicin", "setting": "FaDU head and neck cells; S4 33 μM plus doxorubicin 10 μM, 24 h", "result": "reduced colongenic survival compared with either agent alone; also recorded: significant reduction in colony formation per spheroid"}, {"measurement": "clonogenicity per spheroid, inhibitor alone", "setting": "FaDU head and neck cells; S4 alone (33 μM), 24 h, FIG. 9", "result": "little effect on growth of cells isolated from the spheroids; also recorded: little effect on cell growth"}, {"measurement": "sensitization to irradiation, 24 h anoxia", "setting": "[3]; anoxia, 8, 12 and 16 Gy, FIG. 18", "result": "a sensitization to irradiation was observed"}, {"measurement": "sensitization to irradiation, normoxic exposure", "setting": "[3]; normoxia, 0-8 Gy", "result": "no sensitization to irradiation was demonstrated"}, {"measurement": "sensitization to irradiation, normoxic exposure", "setting": "[4]; S4 33 μM 23 h, normoxia", "result": "no sensitization to irradiation was demonstrated"}, {"measurement": "effect on radiosensitivity of knock down cells", "setting": "[4]; S4 33 μM pretreatment", "result": "had no effect on the radiosensitivity"}, {"measurement": "toxicity under normoxic conditions", "setting": "[5]", "result": "no-toxicity"}]}, {"smiles": "NS(=O)(=O)Oc1ccc(NC(=S)Nc2ccc(-c3c4ccc(=O)cc-4oc4cc(O)ccc34)c(C(=O)O)c2)cc1", "note": "[Compound 20, 2-(3-Hydroxy-6-oxo-6H-xanthen-9-yl)-5-(3-(4-(sulfamoyloxy)phenyl)thioureido)benzoic acid]", "values": [{"measurement": "Ki", "setting": "hCA IX", "result": 14, "unit": "nM"}, {"measurement": "binding upon reoxygenation versus hypoxic conditions", "setting": "[6]; 24 h hypoxia then 1 h air", "result": "dramatically reduced"}, {"measurement": "binding (fluorescence intensity), hypoxia versus normoxia", "setting": "[6]; hypoxia 0.2% 24 h, FIG. 12", "result": "significant higher binding"}, {"measurement": "binding at CA IX knock down cells", "setting": "[7]", "result": "No significant binding"}, {"measurement": "binding upon reoxygenation", "setting": "[8]; 24 h hypoxia then 1 h air, listed as FC11-489A bis", "result": "reduced upon reoxygenation to levels similar as normoxia exposure; also recorded: dramatically reduced"}, {"measurement": "binding (immunofluorescence), hypoxia versus normoxia", "setting": "[8]; hypoxia 0.2% 24 h, FIG. 14/15, listed as FC11-489A bis", "result": "significant higher binding"}, {"measurement": "binding at CA IX knock down cells", "setting": "[9]", "result": "lower for all experimental conditions compared to the EV/2 cells; also recorded: No significant binding"}, {"measurement": "binding upon reoxygenation versus hypoxic conditions", "setting": "[10]; 24 h hypoxia then 1 h air", "result": "dramatically reduced"}, {"measurement": "binding (mean fluorescence intensity), hypoxia versus normoxia", "setting": "[10]; hypoxia 0.2% 24 h, FIG. 13", "result": "significant higher binding"}, {"measurement": "binding at CA IX knock down cells", "setting": "[11]", "result": "No significant binding"}]}]}
